According to patent US20200071361A1, “ENGINEERED ANTIMICROBIAL AMPHIPHILIC PEPTIDES AND METHODS OF USE” (priority 2017, published 2020):
Converted amounts (≈) assume the structure as drawn.

System: Staphylococcus aureus isolates (n = 104)
Assay: Broth microdilution MIC, clinical isolate panel
Assay type: cell-based
Conditions: Staphylococcus aureus (n = 104), all methicillin-resistant

In the case of C[C@H]1COc2c(N3CCN(C)CC3)c(F)cc3c(=O)c(C(=O)O)cn1c23 [Levofloxacin], the “% R (percent of isolates resistant, clinical breakpoints)” value is reported as “Over 80%” and the MIC50 is reported as 8 µg/mL (≈ 22.1 µM).
